Test results published in EP0166609A2, “Aryl derivatives of heterobicyclic compounds” (THE WELLCOME FOUNDATION LIMITED, priority 1984, dated 1986).

System: anaesthetised, open-chest beagle dogs
Experiment: in vivo inotropic and vasodilatory activity, bolus intravenous injection
Conditions: for ED30 / ED50: Canis lupus familiaris, bolus intravenous injection; for ED30: read-out: ED30D.B.P. (effective intravenous dose to produce a 30% decrease in diastolic blood pressure); for ED50: read-out: ED50L.V. dP/dt (effective intravenous dose of compound to produce a 50% increase in L.V. dP/dt); for Selectivity ED50L.V. dP/dt / ED30D.B.P. / Tr (duration of inotropic response): intravenous; for Tr (duration of inotropic response): time in which a 50% increase in L.V. dp/dt would return to pre-dose levels
Experimental: Determination of in vivo Inotropic and Vasodilatory Activity Compounds according to the present invention were tested in vivo in comparison with the compound 2-(2-methoxy-4-methylsulphinylphenyl)imidazo[1,2-a]pyrazine (hereinafter referred to as compound 'X' disclosed in UK patent specification No. 2 132 203 A. The compounds were tested in anaesthetised, open-chest beagle dogs by bolus intravenous injection to produce a dose-related positive inotropic stimulation (as measured by the increase in the maximum rate of change of the left ventricular pressure -,L.V. dp/dt) over the dose range of 0.003 - 3.0 mg/kg. This was accompanied by a dose-related increase in aortic blood flow, and a fall in systemic blood pressure (see Table below). In these preparations, the duration of inotropic response was estimated by measuring the time in which a 50% increase in L.V. dp/dt would return to pre-dose levels. The duration is shown in the table below and for some of the compounds is given as a range. [table]

| SMILES | ED30 | ED50 | Selectivity ED50L.V. dP/dt / ED30D.B.P. | Tr (duration of inotropic response) |
| --- | --- | --- | --- | --- |
| COc1cc(C(N)=O)ccc1-c1cn2ccncc2n1 [Example 1, 2-(2-Methoxy-4-carbamoylphenyl)-imidazo[1,2-a]pyrazine] | 0.05 mg/kg | 0.02 mg/kg | 0.4 | >30 min |
| COc1cc([S+](C)[O-])ccc1-c1cn2ccnc(OC)c2n1 (stereo not drawn) [Example 3, 8-methoxy-2-(2-methoxy-4-methylsulphinylphenyl)imidazo[1,2-a]pyrazine] | 1.17 mg/kg | 0.91 mg/kg | 0.08 | 60 min |
| COc1cc(OS(C)(=O)=O)ccc1-c1cn2ccnc(OC)c2n1 [Example 4, 8-methoxy-2-(2-methoxy-4-methylsulphonyloxyphenyl)imidazo[1,2-a]pyrazine] | 0.06 mg/kg | 0.07 mg/kg | 1.22 | 45 to 60 min |
| COc1cc(C(N)=O)ccc1-c1cn2ccnc(OC)c2n1.Cl [Example 5, 2-(2-methoxy-4-carbamoylphenyl)-8-methoxy-imidazo[1,2-a]pyrazine hydrochloride] | 0.15 mg/kg | 0.06 mg/kg | 0.39 | 30 to 45 min |
| COc1cc(C(C)=O)ccc1-c1cn2ccncc2n1 [Example 7, 2-(2-methoxy-4-acetylphenyl)imidazo[1,2-a]pyrazine] | 0.1 mg/kg | 0.03 mg/kg | 0.30 | 10 min |
| COc1cc([S+](C)[O-])ccc1-c1cn2ccncc2n1 (stereo not drawn) [X, 2-(2-methoxy-4-methylsulphinylphenyl)imidazo[1,2-a]pyrazine, reference compound] | 0.028 mg/kg | 0.75 mg/kg | 26.8 | 5 min |
